Source: ChEMBL document CHEMBL1201862, “PubChem BioAssay data set” (2004)
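Following 48 hours of exposure in 96-well plates, responses at five concentrations were used to interpolate endpoints linearly. The concentration for 50% growth inhibition is given as GI50.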 Activity calls are given as the source filed them. No stated cut-off is given here; in the data, active = GI50 up to about 1.1 µM and inactive = higher.

Tests used:
Experiment in all cases: NCI tumour cell line growth inhibition, 48 h
NCI-H23 = system: NCI-H23
U-251 = system: U-251
HCT-116 = system: HCT-116
MDA-N = system: MDA-N
TK-10 = system: TK-10
SNB-19 = system: SNB-19
BT-549 = system: BT-549
SK-MEL-5 = system: SK-MEL-5
MDA-MB-231 = system: MDA-MB-231
Malme-3M = system: Malme-3M
KM12 = system: KM12
LOX IMVI = system: LOX IMVI
K562 = system: K562
OVCAR-3 = system: OVCAR-3
Hs-578T = system: Hs-578T
ACHN = system: ACHN
SR = system: SR
COLO 205 = system: COLO 205
SK-MEL-28 = system: SK-MEL-28
MCF7 = system: MCF7

Measured: GI50

N/C(CCSCCSCC/C(N)=N\O)=N\O
inactive: NCI-H23 > 100 µM | U-251 > 100 µM | HCT-116 > 100 µM | MDA-N > 100 µM | TK-10 > 100 µM | SNB-19 > 100 µM | BT-549 > 100 µM | SK-MEL-5 > 100 µM | MDA-MB-231 > 100 µM | Malme-3M > 100 µM | KM12 > 100 µM | LOX IMVI > 100 µM | K562 > 100 µM | OVCAR-3 > 100 µM | Hs-578T > 100 µM | ACHN > 100 µM | SR > 100 µM | COLO 205 > 100 µM | SK-MEL-28 > 100 µM | MCF7 > 100 µM

Cc1ccc2cccc(-c3cccc4ccccc34)c2n1
inactive: NCI-H23 32.9 µM | U-251 12.7 µM | HCT-116 17.8 µM | MDA-N 4.2 µM | TK-10 11.3 µM | SNB-19 46.9 µM | BT-549 30.3 µM | SK-MEL-5 16.1 µM | MDA-MB-231 22.9 µM | Malme-3M 4.63 µM | KM12 15 µM | LOX IMVI 14.9 µM | K562 4.66 µM | OVCAR-3 25.2 µM | Hs-578T 23.5 µM | ACHN 24.4 µM | SR 12.6 µM | COLO 205 23.7 µM | SK-MEL-28 26.6 µM | MCF7 > 10 µM

Cc1ccc2nc(-c3ccc(-n4c(C)nc(=O)c(-c5ccc(F)cc5)c4C)cc3)sc2c1
inactive: NCI-H23 16.3 µM | U-251 15.5 µM | HCT-116 11.9 µM | MDA-N 14.4 µM | TK-10 16.1 µM | SNB-19 14.8 µM | BT-549 14.5 µM | SK-MEL-5 10.8 µM | MDA-MB-231 14.1 µM | Malme-3M 14.5 µM | KM12 17.3 µM | LOX IMVI 22.7 µM | K562 10.8 µM | OVCAR-3 13.9 µM | Hs-578T 25.9 µM | ACHN 14.6 µM | SR 6.12 µM | COLO 205 4.97 µM | SK-MEL-28 20.8 µM | MCF7 13.3 µM

OC1CC2CCC(C1)N2CCCN1c2ccccc2Sc2ccc(Cl)cc21 (stereo not given)
inactive: NCI-H23 3.13 µM | U-251 1.87 µM | HCT-116 1.83 µM | MDA-N 1.87 µM | TK-10 1.66 µM | SNB-19 3.88 µM | BT-549 4.86 µM | SK-MEL-5 1.73 µM | MDA-MB-231 1.84 µM | Malme-3M 1.87 µM | KM12 1.95 µM | LOX IMVI 1.7 µM | K562 2.04 µM | OVCAR-3 2.67 µM | Hs-578T 2.22 µM | ACHN 2.23 µM | SR 2.2 µM | COLO 205 1.77 µM | SK-MEL-28 1.81 µM | MCF7 1.59 µM
